How the values were obtained:
[1] = Kinetic parameter KM against monoclonal antibody 16 G3
[2] = Kinetic parameter Kuncat against monoclonal antibody 16 G3
[3] = Kinetic parameter effective molarity against monoclonal antibody 16 G3
[4] = Substrate specificity, the ratio of Kcat to that of Km was determined against monoclonal antibody 16 G3
[5] = Kinetic parameter Vmax against monoclonal antibody 16 G3
[6] = Kinetic parameter Kcat against monoclonal antibody 16 G3

| Km [1] [µM] | Kuncat [2] [M⁻¹ s⁻¹] | Molarity [3] [M] | Substrate specificity [4] | Vmax [5] [µM/min] | k cat [6] [s⁻¹] | Compound |
| --- | --- | --- | --- | --- | --- | --- |
| 900 |  |  |  |  |  | NC(=O)[C@H](N)Cc1c[nH]c2ccccc12 |
| 300 | 0.000833 | 2 | 3 | 1 | 0.00167 | O=C(O)CCCC(=O)N[C@H](C(=O)Oc1ccc([N+](=O)[O-])cc1)C1CCCCC1 |
| 100 | 0.000667 | 15 | 6 | 6 | 0.01 | O=C(O)CCCC(=O)N[C@@H](Cc1ccccc1)C(=O)Oc1ccc([N+](=O)[O-])cc1 |
